Each block holds one molecule with its values, some of them ahead of it.
What was measured:
[1] = system: adjuvant arthritis model rats; assay: Evaluation of bone density decrease-suppressing activity and anti-arthritic activity (adjuvant arthritis model); type: in vivo, rat; settings: oral 10 mg/kg once a day for 7 days from day 14 after adjuvant; for Paw edema-suppressing rate (%): hind paw volume on day 21, 8-week old female Lewis rats; for Bone density decrease-suppressing rate (%): thighbone bone density on day 21, 8-week old female Lewis rats
Method: In rheumatoid arthritis, not only swelling and pain caused by arthritis but also systemic bone mass decrease and articular destruction caused by a significant increase in bone resorption are observed.
The test was conducted using 8-week old female Lewis rats. Mycobacterium butyricum cells which were killed by heat were ground in an agate mortar, suspended in liquid paraffin sterilized by dry heat to a concentration of 2 mg/mL, and treated with ultrasound to prepare an adjuvant. Under ether anesthesia, rats in a control group other than a normal control group and rats in a test compound administration group were intradermally injected with 0.05 mL of this adjuvant each time (0.1 mL/rat in total) at two portions of the base of the tail. Starting from 14 days after the injection of the adjuvant, each rat was orally administered with 5 mL/kg of a test compound suspended in 0.5% MC once a day for 7 days. Similarly, the rats of the control group were administered with 0.5% MC alone. On the 21st day after the adjuvant injection, hind paw volumes were measured by using a paw edema volume determining device (MUROMACHI KIKAI, TK-101CMP). Then, the thighbone was biopsied. The thighbone was, after removing soft tissues, sufficiently fixed, dehydrated, and dried using ethanol. The bone density of the thighbone was measured with a bone density analyzer (Aloka, DOS-600 EX-IIIR). Five rats were used for each test group.
The evaluation was conducted by comparison tests with the normal control group and the control group and based on the bone density decrease-suppressing rate (%) and the paw edema-suppressing rate (%) calculated according to the following formulae: Bone density decrease-suppressing rate (%)=(1−([thighbone bone density in normal control group]−[thighbone bone density in test compound administration group])/([thighbone bone density in normal control group]−[thighbone bone density in control group]))×100 Paw edema-suppressing rate (%)=(1−([paw volume of test compound administration group]−[paw volume in normal control group])/([paw volume in control group]−[paw volume in normal control group]))×100

[2] = system: 4-week old male Wistar rats; assay: Evaluation of blood calcium concentration-decreasing activity (serum calcium after oral dosing of immature rats); type: in vivo, rat; settings: serum 6 hours after administration, fasted 4-week old male Wistar rats, vs normal control group
Method: The blood calcium concentration in a living body is strictly controlled and constantly maintained by intestinal absorption and urinary excretion and release (bone resorption) and adhesion (bone formation) in bone tissues. […] The bone resorption-suppressing activity of compounds according to the present invention was evaluated by administering the compounds to immature rats and observing decreases in blood calcium concentration as an index of the activity.
The test was conducted using 4-week old male Wistar rats fasted for 12 to 24 hours. Each compound to be tested was suspended in 0.5% methyl cellulose (MC). The suspension was orally administered to the rats at a dose of 5 mL/kg. Similarly, rats of a normal control group were administered with 0.5% MC alone. Then, blood was drawn from rat jugular vein under ether anesthesia 6 hours after the administration of each test compound or 0.5% MC. The blood was immediately centrifuged (10000 rpm, 5 minutes) at room temperature to separate serum. The calcium concentration of each serum was measured by an autoanalyzer (JEOL, JCA-BM2250). Five rats were used for each test group.
The evaluation was conducted by a comparative test with the normal control group and based on the serum calcium concentration-decreasing rate (%) calculated according to the following formula:
Serum calcium concentration-decreasing rate (%)=(([serum calcium concentration in normal control group] - [serum calcium concentration in test compound administration group])/[serum calcium concentration in normal control group])×100.

- melting point: 103 to 105 °C
Structure (SMILES): CC(C)Oc1ccc(/C=C(\NC(=O)c2ccc(OCCc3ccc(N(C)C)cc3)cc2)C(=O)NCCO)cc1.Cl

Structure (SMILES): CC(C)COc1ccc(C(=O)N/C(=C\c2ccc3ccccc3c2)C(=O)NCCO)cc1 [Example 2-6, N-[(Z)-1-{[(2-hydroxyethyl)amino]carbonyl}-2-(2-naphthyl)vinyl]-4-isobutoxybenzamide]
- melting point: 150 to 152 °C

Structure (SMILES): CC(C)COc1ccc(C(=O)N/C(=C\c2ccc(C(F)(F)F)nc2)C(=O)NCCO)cc1 [Example 2-16, N-{(Z)-1-{[(2-hydroxyethyl)amino]carbonyl}-2-[6-(trifluoromethyl)pyridin-3-yl]vinyl}-4-isobutoxybenzamide]
- melting point: 184 to 187 °C

Structure (SMILES): CC(C)COc1ccc(C(=O)N/C(=C\c2ccc(OC(C)C)cc2)C(=O)NCCO)cn1 [Example 2-19, N-[(Z)-1-{[(2-hydroxyethyl)amino]carbonyl}-2-(4-isopropoxyphenyl)vinyl]-6-isobutoxynicotinamide]
- melting point: 74 to 76 °C

Structure (SMILES): CC(C)COc1ccc(C(=O)N/C(=C\c2ccc(OC(C)C)cc2)C(=O)NCCO)c(F)c1 [Example 2-21, 2-fluoro-N-[(Z)-1-{[(2-hydroxyethyl)amino]carbonyl}-2-(4-isopropoxyphenyl)vinyl]-4-isobutoxybenzamide]
- melting point: 51 to 54 °C

Structure (SMILES): COc1ccc(CCOc2ccc(C(=O)N/C(=C\c3ccc(OC(F)(F)F)cc3)C(=O)NCCO)cc2)cc1 [Example 3, N-{(Z)-1-{[(2-Hydroxyethyl)amino]carbonyl}-2-[4-(trifluoromethoxy)phenyl]vinyl}-4-[2-(4-methoxyphenyl)ethoxy]benzamide]
- Paw edema-suppressing rate (%) [1]: 22%
- Bone density decrease-suppressing rate (%) [1]: 57%

Structure (SMILES): COc1ccc(CCOc2ccc(C(=O)N/C(=C\c3ccc(C4CC4)cc3)C(=O)NCCO)cc2)cc1 [Example 5, N-((Z)-2-(4-Cyclopropylphenyl)-1-{[(2-hydroxyethyl)amino]carbonyl}vinyl)-4-[2-(4-methoxyphenyl)ethoxy]benzamide]
- Serum calcium concentration-decreasing rate (%) ([2]; administration dose 10 mg/kg): 27.6%
- Paw edema-suppressing rate (%) [1]: 25%
- Bone density decrease-suppressing rate (%) [1]: 54%

Structure (SMILES): O=C(NCCO)/C(=C/c1ccc(C2CC2)cc1)NC(=O)c1ccc(OCCC2CC2)cc1 [Example 9, 4-(2-Cyclopropylethoxy)-N-((Z)-2-(4-cyclopropylphenyl)-1-{[(2-hydroxyethyl)amino]carbonyl}vinyl)benzamide]
- Serum calcium concentration-decreasing rate (%) ([2]; administration dose 20 mg/kg): 29.3%
- Paw edema-suppressing rate (%) [1]: 11%
- Bone density decrease-suppressing rate (%) [1]: 37%

Structure (SMILES): O=C(NCCO)/C(=C/c1ccc(OC(F)(F)F)cc1)NC(=O)c1ccc(OCCC2CC2)cc1 [Example 11, 4-(2-Cyclopropylethoxy)-N-{(Z)-1-{[(2-hydroxyethyl)amino]carbonyl}-2-[4-(trifluoromethoxy)phenyl]vinyl}benzamide]
- Serum calcium concentration-decreasing rate (%) ([2]; administration dose 20 mg/kg): 30.6%
- Paw edema-suppressing rate (%) [1]: 29%
- Bone density decrease-suppressing rate (%) [1]: 40%

Structure (SMILES): O=C(NCCO)/C(=C/c1ccc(Cl)cc1)NC(=O)c1ccc(OCCC2CC2)cc1 [Example 14, N-((Z)-2-(4-Chlorophenyl)-1-{[(2-hydroxyethyl)amino]carbonyl}vinyl)-4-(2-cyclopropylethoxy)benzamide]
- Serum calcium concentration-decreasing rate (%) ([2]; administration dose 10 mg/kg): 33.2%
- Paw edema-suppressing rate (%) [1]: 12%
- Bone density decrease-suppressing rate (%) [1]: 86%

Structure (SMILES): O=C(NCCO)/C(=C/c1ccc(OC2CC2)cc1)NC(=O)c1ccc(OCCC2CC2)cc1 [Example 16, 4-(2-Cyclopropylethoxy)-N-((Z)-2-[4-(cyclopropyloxy)phenyl]-1-{[(2-hydroxyethyl)amino]carbonyl}vinyl)benzamide]
- Serum calcium concentration-decreasing rate (%) ([2]; administration dose 10 mg/kg): 27.2%
- Paw edema-suppressing rate (%) [1]: 35%
- Bone density decrease-suppressing rate (%) [1]: 70%
